Test results: PMC4775085 (ACS chemical neuroscience, 2015)
≈ marks a conversion by molar mass, not a printed value.

Key:
HDAC5 = HDAC5 (Homo sapiens, UniProt Q9UQL6); assay: HDAC5 enzymatic inhibition assay
Aqueous solubility = conditions: PBS, pH 7.4, aqueous buffer
CYP 2D6 = CYP 2D6 (Homo sapiens, UniProt P10635); assay: CYP inhibition 2D6; format: in vitro ADME
Caco-2 permeability = format: in vitro ADME; conditions: human, Caco-2, pH 7.4
Plasma stability, human = format: in vitro ADME; conditions: 120 min
CYP 3A4-M = CYP 3A4-M (Homo sapiens, UniProt P08684); assay: CYP inhibition 3A4-M; format: in vitro ADME
mutant HSPB1 DRG neurons = assay: Mitochondrial axonal transport in mutant HSPB1 DRG neurons; format: cell-based, mouse; conditions: DRG neurons from transgenic mutant HSPB1 mice, 100 nM overnight
CYP 2C9 = CYP 2C9 (Homo sapiens, UniProt P11712); assay: CYP inhibition 2C9
HDAC8 = target: T1, HDAC8 (Homo sapiens, UniProt Q9BY41); assay: HDAC8 enzymatic inhibition assay
T1 sequence (Q9BY41 1-377): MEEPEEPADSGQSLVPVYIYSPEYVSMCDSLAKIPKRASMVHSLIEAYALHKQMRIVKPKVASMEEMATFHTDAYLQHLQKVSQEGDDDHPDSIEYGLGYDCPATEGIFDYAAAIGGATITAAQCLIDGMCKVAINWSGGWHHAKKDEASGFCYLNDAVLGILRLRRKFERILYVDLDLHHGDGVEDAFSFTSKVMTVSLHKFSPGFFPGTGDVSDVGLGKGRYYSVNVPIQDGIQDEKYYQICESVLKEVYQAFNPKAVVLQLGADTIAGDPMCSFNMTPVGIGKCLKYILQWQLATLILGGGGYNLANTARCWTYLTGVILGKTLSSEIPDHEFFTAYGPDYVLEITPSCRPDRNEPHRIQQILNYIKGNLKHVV

HDAC4 = HDAC4 (Homo sapiens, UniProt P56524); assay: HDAC4 enzymatic inhibition assay
[1] = Liver microsomes stability, human; format: in vitro ADME
CYP 2C19 = CYP 2C19 (Homo sapiens, UniProt P33261); assay: CYP inhibition 2C19
[2] = Hepatocyte stability, mouse; format: in vitro ADME; conditions: hepatocytes
Plasma stability, mouse = format: in vitro ADME; conditions: 120 min
[3] = Liver microsomes stability, mouse; format: in vitro ADME
CYP 3A4-T = CYP 3A4-T (Homo sapiens, UniProt P08684); assay: CYP inhibition 3A4-T; format: in vitro ADME
[4] = Hepatocyte stability, human; format: in vitro ADME; conditions: hepatocytes
[5] = Intravenous and oral plasma pharmacokinetics in male CD1 mice; format: in vivo; conditions: CD1, mouse
CYP 1A2 = target: T2, CYP 1A2 (Homo sapiens, UniProt P05177); assay: CYP inhibition 1A2
T2 sequence (P05177 1-516): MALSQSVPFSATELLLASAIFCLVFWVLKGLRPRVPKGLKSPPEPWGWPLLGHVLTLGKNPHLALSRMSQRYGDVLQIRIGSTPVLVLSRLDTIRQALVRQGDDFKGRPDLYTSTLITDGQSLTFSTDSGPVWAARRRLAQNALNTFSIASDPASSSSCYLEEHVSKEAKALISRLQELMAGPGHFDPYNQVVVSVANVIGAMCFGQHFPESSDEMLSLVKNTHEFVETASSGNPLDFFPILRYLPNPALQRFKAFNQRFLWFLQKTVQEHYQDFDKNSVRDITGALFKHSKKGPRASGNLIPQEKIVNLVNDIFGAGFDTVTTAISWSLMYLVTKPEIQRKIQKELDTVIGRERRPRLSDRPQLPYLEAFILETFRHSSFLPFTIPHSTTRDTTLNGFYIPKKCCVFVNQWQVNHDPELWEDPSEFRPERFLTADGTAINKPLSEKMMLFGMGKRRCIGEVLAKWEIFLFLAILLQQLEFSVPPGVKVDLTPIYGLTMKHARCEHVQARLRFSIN

CYP 2C9, sequence (P11712 whole entry): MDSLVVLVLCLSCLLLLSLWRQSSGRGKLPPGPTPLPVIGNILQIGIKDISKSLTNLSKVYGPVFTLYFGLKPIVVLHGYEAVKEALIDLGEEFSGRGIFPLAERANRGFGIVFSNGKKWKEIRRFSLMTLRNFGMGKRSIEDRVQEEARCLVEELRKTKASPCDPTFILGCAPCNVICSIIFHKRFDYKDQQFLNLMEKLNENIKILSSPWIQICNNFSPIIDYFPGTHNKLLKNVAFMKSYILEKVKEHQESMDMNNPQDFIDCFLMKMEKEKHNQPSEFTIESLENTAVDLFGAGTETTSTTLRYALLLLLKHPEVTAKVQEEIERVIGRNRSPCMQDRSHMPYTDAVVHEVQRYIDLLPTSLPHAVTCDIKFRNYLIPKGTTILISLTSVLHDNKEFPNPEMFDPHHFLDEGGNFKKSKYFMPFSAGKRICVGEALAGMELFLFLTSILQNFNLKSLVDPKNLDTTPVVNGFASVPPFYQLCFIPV
CYP 2C19, sequence (P33261 whole entry): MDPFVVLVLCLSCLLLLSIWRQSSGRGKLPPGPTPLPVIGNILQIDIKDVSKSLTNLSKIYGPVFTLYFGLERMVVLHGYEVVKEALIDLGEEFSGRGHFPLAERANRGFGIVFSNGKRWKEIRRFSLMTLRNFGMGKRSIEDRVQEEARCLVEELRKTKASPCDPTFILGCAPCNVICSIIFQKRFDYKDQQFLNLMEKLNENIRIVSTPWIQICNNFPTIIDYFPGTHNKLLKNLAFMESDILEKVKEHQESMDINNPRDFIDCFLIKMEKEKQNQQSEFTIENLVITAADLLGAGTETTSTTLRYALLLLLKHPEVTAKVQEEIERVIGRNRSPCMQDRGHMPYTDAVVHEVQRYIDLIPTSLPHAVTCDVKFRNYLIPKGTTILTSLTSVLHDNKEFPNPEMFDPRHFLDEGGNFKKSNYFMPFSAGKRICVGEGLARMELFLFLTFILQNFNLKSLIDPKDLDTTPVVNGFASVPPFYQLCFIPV
HDAC4, sequence (P56524 whole entry): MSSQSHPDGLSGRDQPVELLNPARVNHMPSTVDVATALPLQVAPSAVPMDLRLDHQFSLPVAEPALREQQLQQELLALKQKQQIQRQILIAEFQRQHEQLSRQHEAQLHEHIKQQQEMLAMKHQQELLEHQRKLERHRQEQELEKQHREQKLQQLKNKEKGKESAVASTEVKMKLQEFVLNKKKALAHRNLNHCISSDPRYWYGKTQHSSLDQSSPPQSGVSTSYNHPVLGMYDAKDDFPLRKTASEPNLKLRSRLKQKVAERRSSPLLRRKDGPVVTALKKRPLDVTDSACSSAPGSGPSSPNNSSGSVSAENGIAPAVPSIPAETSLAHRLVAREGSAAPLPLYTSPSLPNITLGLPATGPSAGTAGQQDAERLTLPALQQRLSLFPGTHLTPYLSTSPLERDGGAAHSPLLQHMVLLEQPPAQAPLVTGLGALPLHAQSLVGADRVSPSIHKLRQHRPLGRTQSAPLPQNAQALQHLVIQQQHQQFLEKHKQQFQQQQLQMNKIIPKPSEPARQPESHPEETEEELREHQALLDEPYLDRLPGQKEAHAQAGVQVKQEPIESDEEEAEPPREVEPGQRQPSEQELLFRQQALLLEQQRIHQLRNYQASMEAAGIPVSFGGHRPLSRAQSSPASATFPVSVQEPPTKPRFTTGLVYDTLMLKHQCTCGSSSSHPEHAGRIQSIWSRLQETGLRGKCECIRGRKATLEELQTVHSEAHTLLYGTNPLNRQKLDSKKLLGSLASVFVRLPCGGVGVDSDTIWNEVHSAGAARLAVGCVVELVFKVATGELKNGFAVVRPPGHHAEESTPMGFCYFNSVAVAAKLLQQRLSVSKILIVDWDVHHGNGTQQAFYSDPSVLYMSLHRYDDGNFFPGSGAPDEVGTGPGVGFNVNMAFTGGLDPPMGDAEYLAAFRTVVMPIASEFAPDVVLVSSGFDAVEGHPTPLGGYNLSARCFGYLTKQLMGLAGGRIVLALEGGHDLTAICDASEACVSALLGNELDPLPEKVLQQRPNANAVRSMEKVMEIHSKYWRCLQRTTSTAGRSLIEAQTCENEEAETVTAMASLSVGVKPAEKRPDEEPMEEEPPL
HDAC5, sequence (Q9UQL6 whole entry): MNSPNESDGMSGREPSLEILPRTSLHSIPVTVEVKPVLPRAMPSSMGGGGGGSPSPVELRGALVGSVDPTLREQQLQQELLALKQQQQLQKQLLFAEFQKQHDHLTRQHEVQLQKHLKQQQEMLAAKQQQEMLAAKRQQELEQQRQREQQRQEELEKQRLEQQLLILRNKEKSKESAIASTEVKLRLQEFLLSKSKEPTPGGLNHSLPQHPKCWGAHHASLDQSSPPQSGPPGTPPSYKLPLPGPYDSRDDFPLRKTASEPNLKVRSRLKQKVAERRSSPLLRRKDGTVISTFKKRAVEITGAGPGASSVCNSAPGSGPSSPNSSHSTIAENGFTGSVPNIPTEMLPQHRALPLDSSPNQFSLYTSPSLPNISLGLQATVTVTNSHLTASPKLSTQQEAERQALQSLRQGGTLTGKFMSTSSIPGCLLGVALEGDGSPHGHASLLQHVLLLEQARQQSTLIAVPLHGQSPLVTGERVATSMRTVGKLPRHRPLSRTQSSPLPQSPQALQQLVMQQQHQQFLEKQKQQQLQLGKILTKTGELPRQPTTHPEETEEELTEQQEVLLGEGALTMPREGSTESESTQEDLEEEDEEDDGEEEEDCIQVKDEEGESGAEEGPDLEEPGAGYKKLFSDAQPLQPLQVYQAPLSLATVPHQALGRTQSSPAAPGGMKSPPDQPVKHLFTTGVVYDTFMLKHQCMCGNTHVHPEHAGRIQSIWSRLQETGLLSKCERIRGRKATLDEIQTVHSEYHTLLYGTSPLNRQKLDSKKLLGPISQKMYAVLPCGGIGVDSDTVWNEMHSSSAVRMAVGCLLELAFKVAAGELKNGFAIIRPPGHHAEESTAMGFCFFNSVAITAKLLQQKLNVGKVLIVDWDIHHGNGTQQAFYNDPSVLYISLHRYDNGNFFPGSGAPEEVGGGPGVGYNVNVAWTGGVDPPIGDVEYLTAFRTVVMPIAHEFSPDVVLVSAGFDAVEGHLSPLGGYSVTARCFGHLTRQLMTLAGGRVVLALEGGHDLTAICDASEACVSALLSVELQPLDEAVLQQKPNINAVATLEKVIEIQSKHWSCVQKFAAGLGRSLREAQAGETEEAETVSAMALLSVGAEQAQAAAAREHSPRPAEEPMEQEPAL
CYP 2D6, sequence (P10635 whole entry): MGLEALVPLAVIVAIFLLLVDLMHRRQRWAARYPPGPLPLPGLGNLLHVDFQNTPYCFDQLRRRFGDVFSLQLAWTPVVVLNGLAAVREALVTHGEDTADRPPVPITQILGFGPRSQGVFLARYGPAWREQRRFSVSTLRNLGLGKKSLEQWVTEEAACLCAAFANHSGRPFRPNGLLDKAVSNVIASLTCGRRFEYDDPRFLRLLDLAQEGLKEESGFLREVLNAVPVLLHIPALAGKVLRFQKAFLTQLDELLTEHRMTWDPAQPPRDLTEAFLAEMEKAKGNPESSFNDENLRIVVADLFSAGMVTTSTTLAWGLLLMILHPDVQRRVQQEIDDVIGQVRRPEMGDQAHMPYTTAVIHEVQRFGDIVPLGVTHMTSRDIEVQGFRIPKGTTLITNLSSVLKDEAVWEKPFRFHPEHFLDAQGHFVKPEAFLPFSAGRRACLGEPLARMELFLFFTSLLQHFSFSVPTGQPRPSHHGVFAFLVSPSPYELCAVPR
CYP 3A4-T, sequence (P08684 whole entry): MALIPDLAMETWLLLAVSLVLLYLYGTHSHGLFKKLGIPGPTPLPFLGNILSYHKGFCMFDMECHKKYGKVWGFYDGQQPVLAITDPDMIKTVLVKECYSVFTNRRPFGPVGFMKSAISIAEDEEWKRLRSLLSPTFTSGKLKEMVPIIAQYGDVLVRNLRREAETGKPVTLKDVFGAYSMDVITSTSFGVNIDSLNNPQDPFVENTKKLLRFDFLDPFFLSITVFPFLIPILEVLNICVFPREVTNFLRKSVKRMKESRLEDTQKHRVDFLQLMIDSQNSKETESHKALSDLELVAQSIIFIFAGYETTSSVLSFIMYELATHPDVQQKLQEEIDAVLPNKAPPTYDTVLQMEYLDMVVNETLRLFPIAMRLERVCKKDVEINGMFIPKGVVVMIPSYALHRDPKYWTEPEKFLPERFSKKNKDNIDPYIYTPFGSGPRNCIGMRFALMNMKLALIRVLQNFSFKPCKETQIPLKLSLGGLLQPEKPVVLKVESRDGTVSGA
CYP 3A4-M, sequence (P08684 whole entry): as above

Cc1nc2ccccc2n1Cc1ccc(C(=O)NO)cc1F [23d, 3-Fluoro-N-hydroxy-4-[(2-methyl-1-benzimidazolyl)methyl]-benzamide]
IC50 (HDAC5): 0.182 µM | solubility (Aqueous solubility): 302 µM (≈ 90.4 µg/mL) | IC50 (CYP 2D6): > 50 µM | Papp A→B (Caco-2 permeability): 3.89 ×10⁻⁶ cm/s | Papp B→A (Caco-2 permeability): 13.2 ×10⁻⁶ cm/s | plasma stability remaining percentage (Plasma stability, human): 93.4% | IC50 (CYP 3A4-M): > 50 µM | mitochondrial axonal transport (number of moving mitochondria per 100 μm of neurite) (mutant HSPB1 DRG neurons): able to restore the movement of mitochondria | IC50 (CYP 2C9): > 50 µM | IC50 (HDAC8): 0.176 µM | IC50 (HDAC4): 0.47 µM | half-life [1]: 32.4 h | IC50 (CYP 2C19): > 50 µM | half-life [2]: 0.667 h | plasma stability remaining percentage (Plasma stability, mouse): 87.9% | half-life [3]: 4.75 h | IC50 (CYP 3A4-T): 36 µM | half-life [4]: 24.8 h | AUC(0-inf) ([5]; iv, 3 mg/kg): 1480 ng·h/mL | Vd ([5]; iv, 3 mg/kg): 0.382 L/kg | clearance ([5]; iv, 3 mg/kg): 34 mL/min/kg | half-life ([5]; iv, 3 mg/kg): 0.851 h | AUC(0-inf) ([5]; po, 30 mg/kg): 3100 ± 84 ng·h/mL | Cmax ([5]; po, 30 mg/kg): 4370 ± 470 ng/mL | Tmax ([5]; po, 30 mg/kg): 0.25 h | IC50 (CYP 1A2): > 50 µM
